One series relates to RSV A2. In words: RSV induced F-protein expression in primary bronchial epithelial cells. Type of series: cell-based, respiratory syncytical virus. Conditions: for RSV induced F-protein in HBECs % Inhibition Observed: screened at concentrations up to 0.04 μg/mL. How it is done: Normal human bronchial epithelial cells (NHBEC) grown in 96 well plates are infected with RSV A2 (Strain A2, HPA, Salisbury, UK) at an MOI of 0.001 in the LHC8 Media:RPMI-1640 (50:50) containing 15 mM magnesium chloride and incubated for 1 hr at 37° C. for adsorption. The cells are then washed with PBS (3×200 μL), fresh media (200 μL) is added and incubation continued for 4 days. Where appropriate, cells are pre-incubated with the compound or DMSO for 2 hr, and then added again after washout of the virus.
The cells are fixed with 4% formaldehyde in PBS solution (50 μL) for 20 min, washed with WB (3×200 μL), (washing buffer, PBS including 0.5% BSA and 0.05% Tween-20) and incubated with blocking solution (5% condensed milk in PBS) for 1 hr. Cells are then washed with WB (3×200 μL) and incubated for 1 hr at RT with anti-RSV (2F7) F-fusion protein antibody (40 μL) (mouse monoclonal, lot 798760, Cat. No. ab43812, Abcam) in 5% BSA in PBS-tween. After washing, cells are incubated with an HRP-conjugated secondary antibody solution (50 μL) in 5% BSA in PBS-Tween (lot 00053170, Cat. No. P0447, Dako) and then TMB substrate (50 μL) (substrate reagent pack, lot 269472, Cat. No. DY999, R&D Systems, Inc.) was added. This reaction is stopped by the addition of 2N H2SO4 (50 μL) and the resultant signal is determined colorimetrically (OD: 450 nm with a reference wavelength of 655 nm) in a microplate reader (Varioskan® Flash, ThermoFisher Scientific).
Cells are then washed and a 2.5% crystal violet solution (50 μL) (lot 8656, Cat. No. PL7000, Pro-Lab Diagnostics) is applied for 30 min. After washing with WB, 1% SDS in distilled water (100 μL) is added to each well, and plates are shaken lightly on the shaker for 1 hr prior to reading the absorbance at 595 nm. The measured OD450-655 readings are corrected to the cell number by dividing the OD450-655 by the OD595 readings. The percentage inhibition for each well is calculated and the IC50 value is calculated from the concentration-response curve generated from the serial dilutions of compound.

For another series, the target named is cSrc (Homo sapiens (Human), UniProt P12931). In words: c-Src enzyme inhibition (FRET, Z-LYTE). Type of series: biochemical. Summed up: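 Z-LYTE FRET kinase assay: enzyme (3000 or 2000 ng/mL stock, respectively) preincubated 2 h at RT with compound (4–0.004 μg/mL stocks), then FRET peptide plus ATP (800 μM stock for c-Src, 60 μM for Syk) added for 1 h. Protease development 1 h; phosphorylation from coumarin/fluorescein emission ratio.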

The test system of another series is HRV16. In words: HRV16 induced CPE in MRC5 cells. Type of series: cell-based, human rhinovirus. The following applies: MRC5 cells; screened at concentrations up to 0.32 ng/mL. As for the experimental part:
The supernatants are aspirated, and then fresh media added followed by incubation for 4 days. Where appropriate, cells are pre-incubated with compound or DMSO for 2 hr, and the compounds and DMSO added again after washout of the virus.
Supernatants are aspirated and incubated with methylene blue solution (100 μL, 2% formaldehyde, 10% methanol and 0.175% Methylene Blue) for 2 hr at RT. […] The percentage inhibition for each well is calculated. The IC50 value is calculated from the concentration-response curve generated by the serial dilutions of the test compounds.

In a further series the test system is d-U937 cells. In words: Cell viability: MTT assay. Type of series: cell-based, human. Conditions: 1 μg/mL. Summed up:
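Differentiated U937 cells were exposed to compound at 1 or 10 μg/mL either 4 h in 5% FCS RPMI1640 or 24 h in 10% FCS RPMI1640, then given MTT for 1 h, DMSO-solubilised and read at 550 nm. Percent viability loss versus 0.5% DMSO vehicle; apparent gains appear negative.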
(In general: Tetrazolium dyes change colour on reduction, which living cells bring about.)

Series [1] has as its system LPS-induced airways neutrophilia in mice. In words: LPS-induced neutrophil accumulation in mice. Type of series: in vivo. The following applies: Test Substance at 0.2 mg/mL, intra tracheal, dosed 8 hr pre-LPS challenge.

One may read the IC50 as the concentration at which inhibition is half-maximal.

Sequence of cSrc (P12931 whole entry, looked up): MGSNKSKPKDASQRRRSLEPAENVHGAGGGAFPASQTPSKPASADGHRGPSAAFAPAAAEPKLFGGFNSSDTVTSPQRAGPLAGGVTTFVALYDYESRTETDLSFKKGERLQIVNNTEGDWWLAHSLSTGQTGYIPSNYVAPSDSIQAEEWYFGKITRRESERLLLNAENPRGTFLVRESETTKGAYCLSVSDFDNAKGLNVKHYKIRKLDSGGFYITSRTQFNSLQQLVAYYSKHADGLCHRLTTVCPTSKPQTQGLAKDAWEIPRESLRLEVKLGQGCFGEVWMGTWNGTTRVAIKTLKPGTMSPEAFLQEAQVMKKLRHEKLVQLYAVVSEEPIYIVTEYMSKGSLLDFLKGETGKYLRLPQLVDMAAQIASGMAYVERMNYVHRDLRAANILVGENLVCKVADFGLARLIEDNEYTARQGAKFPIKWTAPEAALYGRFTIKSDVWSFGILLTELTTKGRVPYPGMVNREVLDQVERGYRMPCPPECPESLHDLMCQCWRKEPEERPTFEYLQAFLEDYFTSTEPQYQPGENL

As to `Cc1ccc(-n2nc(C(C)(C)C)cc2NC(=O)Nc2ccc(Oc3ccnc(Nc4ccc5ncsc5c4)n3)c3ccccc23)cc1` [Example 35, 1-(4-((2-(benzo[d]thiazol-6-ylamino)pyrimidin-4-yl)oxy)naphthalen-1-yl)-3-(3-(tert-butyl)-1-(p-tolyl)-1H-pyrazol-5-yl)urea], the “RSV induced F-protein in HBECs % Inhibition Observed” value in the series with RSV A2 worked out at 71%. Further, the IC50 against cSrc was found to be 18 nM. Moreover, the “HRV induced CPE in MRC5 Cells % Inhibition Observed” value in the series with HRV16 is listed as 100%. Further, in the series with d-U937 cells, the “MTT Assay Cell viability at time point in d-U937 cells 4 h” value is “−ve (−ve and +ve indicate that the value is below and above respectively, the no significant effect threshold, defined as 30% inhibition at 1 μg/mL at the time point indicated.)”; the “MTT Assay Cell viability at time point in d-U937 cells 24 h” value is “−ve (−ve and +ve indicate that the value is below and above respectively, the no significant effect threshold, defined as 30% inhibition at 1 μg/mL at the time point indicated.)”.

In the case of `Cc1ccc(-n2nc(C(C)(C)C)cc2NC(=O)Nc2ccc(Oc3ccnc(Nc4ccc5[nH]ncc5c4)n3)c3ccccc23)cc1` [Example 22, 1-(4-((2-((1H-indazol-5-yl)amino)pyrimidin-4-yl)oxy)naphthalen-1-yl)-3-(3-(tert-butyl)-1-(p-tolyl)-1H-pyrazol-5-yl)urea], the IC50 in the series on RSV A2 (human respiratory syncytial virus, Primary bronchial epithelial cell, read-out: RSV induced F-protein in HBECs IC50) worked out at 4.6 nM. Further, on cSrc, inhibition was half-maximal at 19 nM (IC50). Further, in the series with d-U937 cells, the “MTT Assay Cell viability at time point in d-U937 cells 4 h” value is “−ve (−ve and +ve indicate that the value is below and above respectively, the no significant effect threshold, defined as 30% inhibition at 1 μg/mL at the time point indicated.)”; the “MTT Assay Cell viability at time point in d-U937 cells 24 h” value is “−ve (−ve and +ve indicate that the value is below and above respectively, the no significant effect threshold, defined as 30% inhibition at 1 μg/mL at the time point indicated.)”. For the same compound, in series [1], the “% Inhibition of neutrophil accumulation in BAL” value is given as 57% and the “Neutrophil numbers in BAL (+/−SEM)” value is 7.0 ± 1.2 ×10^5/mL.

For `Cc1ccc(-n2nc(C(C)(C)C)cc2NC(=O)Nc2ccc(Oc3ccnc(Nc4ccc5c(c4)ncn5C)n3)c3ccccc23)cc1` [Example 4, 1-(3-(tert-Butyl)-1-(p-tolyl)-1H-pyrazol-5-yl)-3-(4-((2-((1-methyl-1H-benzo[d]imidazol-5-yl)amino)pyrimidin-4-yl)oxy)naphthalen-1-yl)urea], the “RSV induced F-protein in HBECs % Inhibition Observed” value in the series with RSV A2 came out at 96%. On cSrc, this compound returned an IC50 of 4 nM. Also, in the series on d-U937 cells, the “MTT Assay Cell viability at time point in d-U937 cells 4 h” value was “−ve (−ve and +ve indicate that the value is below and above respectively, the no significant effect threshold, defined as 30% inhibition at 1 μg/mL at the time point indicated.)”; the “MTT Assay Cell viability at time point in d-U937 cells 24 h” value is “−ve (−ve and +ve indicate that the value is below and above respectively, the no significant effect threshold, defined as 30% inhibition at 1 μg/mL at the time point indicated.)”.

For the compound `Cc1ccc(-n2nc(C(C)(C)C)cc2NC(=O)Nc2ccc(Oc3ccnc(Nc4ccc5ncn(C)c5c4)n3)c3ccccc23)cc1` [Example 31, 1-(3-(tert-butyl)-1-(p-tolyl)-1H-pyrazol-5-yl)-3-(4-((2-((1-methyl-1H-benzo[d]imidazol-6-yl)amino)pyrimidin-4-yl)oxy)naphthalen-1-yl)urea], the “RSV induced F-protein in HBECs % Inhibition Observed” value with RSV A2 is listed as 73%. Also, half-maximal inhibition against cSrc (IC50) was put at 6 nM. In the series on d-U937 cells, the “MTT Assay Cell viability at time point in d-U937 cells 4 h” value was “−ve (−ve and +ve indicate that the value is below and above respectively, the no significant effect threshold, defined as 30% inhibition at 1 μg/mL at the time point indicated.)”; the “MTT Assay Cell viability at time point in d-U937 cells 24 h” value is “−ve (−ve and +ve indicate that the value is below and above respectively, the no significant effect threshold, defined as 30% inhibition at 1 μg/mL at the time point indicated.)”.

Regarding `Cc1ccc(-n2nc(C(C)(C)C)cc2NC(=O)Nc2ccc(Oc3ccnc(Nc4ccc5cn[nH]c5c4)n3)c3ccccc23)cc1` [Example 24, 1-(4-((2-((1H-indazol-6-yl)amino)pyrimidin-4-yl)oxy)naphthalen-1-yl)-3-(3-(tert-butyl)-1-(p-tolyl)-1H-pyrazol-5-yl)urea], the “RSV induced F-protein in HBECs % Inhibition Observed” value in the series with RSV A2 amounted to 45%. Moreover, half-maximal inhibition against cSrc (IC50) required 102 nM. In the series on d-U937 cells, the “MTT Assay Cell viability at time point in d-U937 cells 4 h” value is “−ve (−ve and +ve indicate that the value is below and above respectively, the no significant effect threshold, defined as 30% inhibition at 1 μg/mL at the time point indicated.)”; the “MTT Assay Cell viability at time point in d-U937 cells 24 h” value was “−ve (−ve and +ve indicate that the value is below and above respectively, the no significant effect threshold, defined as 30% inhibition at 1 μg/mL at the time point indicated.)”.

With `Cc1ccc(-n2nc(C(C)(C)C)cc2NC(=O)Nc2ccc(Oc3ccnc(Nc4ccc5scnc5c4)n3)c3ccccc23)cc1` [Example 34, 1-(4-((2-(benzo[d]thiazol-5-ylamino)pyrimidin-4-yl)oxy)naphthalen-1-yl)-3-(3-(tert-butyl)-1-(p-tolyl)-1H-pyrazol-5-yl)urea], the “RSV induced F-protein in HBECs % Inhibition Observed” value with RSV A2 turned out to be 74%. In addition, inhibition against cSrc was half-maximal at 18 nM (IC50). Moreover, in the series on d-U937 cells, the “MTT Assay Cell viability at time point in d-U937 cells 4 h” value is “−ve (−ve and +ve indicate that the value is below and above respectively, the no significant effect threshold, defined as 30% inhibition at 1 μg/mL at the time point indicated.)”; the “MTT Assay Cell viability at time point in d-U937 cells 24 h” value is “−ve (−ve and +ve indicate that the value is below and above respectively, the no significant effect threshold, defined as 30% inhibition at 1 μg/mL at the time point indicated.)”.
